Source: patent publication US20240335442A1 (Eurofarma Laboratórios S.A., priority 2021, published 2024)

Assays:
[1] = molecular target: human sodium channel Nav 1.8 (Homo sapiens (Human), UniProt Q9Y5Y9); assay: Automated whole-cell voltage-clamp (ScreenPatch 384P), Nav 1.8 sodium current, Protocol 2; type: cell-based; conditions: read-out: Nav1.8 IC50
In short: (§1)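 CHO cells stably expressing human Nav1.7 or Nav1.8, automated whole-cell clamp, room temperature, ≥5 min exposure at eight concentrations. Protocol 1: hold −90 mV, 0.1 Hz, test pulse 0 mV (Nav1.7) or 10 mV (Nav1.8). Protocol 2: hold −100 mV with 8 s −40 mV inactivating step, 0.05 Hz. IC50 from Hill fit of TP1A peak-current block, normalized to vehicle and positive control.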

[2] = molecular target: human sodium channel Nav 1.7 (Homo sapiens (Human), UniProt Q15858); assay: Automated whole-cell voltage-clamp (ScreenPatch 384P), Nav 1.7 sodium current, Protocol 2; type: cell-based; conditions: read-out: Nav1.7 IC50
human sodium channel Nav 1.7, sequence (Q15858 whole entry): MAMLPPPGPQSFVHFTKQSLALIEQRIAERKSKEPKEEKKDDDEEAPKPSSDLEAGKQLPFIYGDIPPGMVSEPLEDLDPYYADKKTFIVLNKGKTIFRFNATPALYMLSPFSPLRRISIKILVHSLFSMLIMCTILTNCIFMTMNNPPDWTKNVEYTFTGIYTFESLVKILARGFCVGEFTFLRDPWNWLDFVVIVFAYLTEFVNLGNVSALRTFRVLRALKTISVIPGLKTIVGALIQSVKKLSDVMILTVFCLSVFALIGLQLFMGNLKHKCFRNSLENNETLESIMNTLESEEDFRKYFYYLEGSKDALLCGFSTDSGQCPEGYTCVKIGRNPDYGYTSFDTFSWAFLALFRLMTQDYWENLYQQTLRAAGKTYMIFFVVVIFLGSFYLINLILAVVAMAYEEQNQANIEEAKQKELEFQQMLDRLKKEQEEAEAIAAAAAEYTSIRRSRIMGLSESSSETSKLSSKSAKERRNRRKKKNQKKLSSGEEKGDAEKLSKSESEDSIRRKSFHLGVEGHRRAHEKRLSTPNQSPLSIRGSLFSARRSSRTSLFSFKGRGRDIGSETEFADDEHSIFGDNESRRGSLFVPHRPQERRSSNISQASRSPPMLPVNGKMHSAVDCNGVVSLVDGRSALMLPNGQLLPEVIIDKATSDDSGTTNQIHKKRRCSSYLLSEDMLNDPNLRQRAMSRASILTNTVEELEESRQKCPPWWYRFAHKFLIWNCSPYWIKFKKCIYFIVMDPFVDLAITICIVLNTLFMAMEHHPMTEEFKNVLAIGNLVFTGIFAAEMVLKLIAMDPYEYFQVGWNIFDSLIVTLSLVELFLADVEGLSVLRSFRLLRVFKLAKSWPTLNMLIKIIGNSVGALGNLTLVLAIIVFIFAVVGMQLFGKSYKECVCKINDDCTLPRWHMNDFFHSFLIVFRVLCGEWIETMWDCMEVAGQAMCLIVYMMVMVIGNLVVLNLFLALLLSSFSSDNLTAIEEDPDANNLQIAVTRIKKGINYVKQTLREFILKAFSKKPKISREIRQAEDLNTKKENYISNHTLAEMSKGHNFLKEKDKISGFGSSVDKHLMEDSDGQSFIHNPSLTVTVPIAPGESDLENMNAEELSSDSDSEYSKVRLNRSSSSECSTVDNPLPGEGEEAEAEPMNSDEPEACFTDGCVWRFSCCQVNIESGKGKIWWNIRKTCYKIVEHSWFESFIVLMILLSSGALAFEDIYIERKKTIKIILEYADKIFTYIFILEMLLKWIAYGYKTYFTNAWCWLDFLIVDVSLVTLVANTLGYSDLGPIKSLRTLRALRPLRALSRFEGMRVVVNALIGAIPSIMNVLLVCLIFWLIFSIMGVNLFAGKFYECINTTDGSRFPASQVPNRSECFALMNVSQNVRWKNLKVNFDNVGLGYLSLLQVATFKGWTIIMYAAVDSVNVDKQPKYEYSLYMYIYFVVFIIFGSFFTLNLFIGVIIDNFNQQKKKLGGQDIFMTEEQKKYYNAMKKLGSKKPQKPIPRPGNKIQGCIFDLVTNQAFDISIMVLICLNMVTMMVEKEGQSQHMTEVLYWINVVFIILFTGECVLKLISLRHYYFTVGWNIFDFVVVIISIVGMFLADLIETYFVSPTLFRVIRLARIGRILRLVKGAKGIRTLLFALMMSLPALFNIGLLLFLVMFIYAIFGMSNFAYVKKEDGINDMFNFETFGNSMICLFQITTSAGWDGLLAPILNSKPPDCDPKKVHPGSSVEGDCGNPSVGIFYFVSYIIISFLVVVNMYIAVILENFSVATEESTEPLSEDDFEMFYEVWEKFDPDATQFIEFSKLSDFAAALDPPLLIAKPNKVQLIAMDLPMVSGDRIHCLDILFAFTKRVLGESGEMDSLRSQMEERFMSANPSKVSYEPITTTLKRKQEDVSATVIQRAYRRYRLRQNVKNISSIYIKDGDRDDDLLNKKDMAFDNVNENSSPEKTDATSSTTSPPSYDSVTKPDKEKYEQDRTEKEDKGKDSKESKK
In short: as §1

human sodium channel Nav 1.8, sequence (Q9Y5Y9 whole entry): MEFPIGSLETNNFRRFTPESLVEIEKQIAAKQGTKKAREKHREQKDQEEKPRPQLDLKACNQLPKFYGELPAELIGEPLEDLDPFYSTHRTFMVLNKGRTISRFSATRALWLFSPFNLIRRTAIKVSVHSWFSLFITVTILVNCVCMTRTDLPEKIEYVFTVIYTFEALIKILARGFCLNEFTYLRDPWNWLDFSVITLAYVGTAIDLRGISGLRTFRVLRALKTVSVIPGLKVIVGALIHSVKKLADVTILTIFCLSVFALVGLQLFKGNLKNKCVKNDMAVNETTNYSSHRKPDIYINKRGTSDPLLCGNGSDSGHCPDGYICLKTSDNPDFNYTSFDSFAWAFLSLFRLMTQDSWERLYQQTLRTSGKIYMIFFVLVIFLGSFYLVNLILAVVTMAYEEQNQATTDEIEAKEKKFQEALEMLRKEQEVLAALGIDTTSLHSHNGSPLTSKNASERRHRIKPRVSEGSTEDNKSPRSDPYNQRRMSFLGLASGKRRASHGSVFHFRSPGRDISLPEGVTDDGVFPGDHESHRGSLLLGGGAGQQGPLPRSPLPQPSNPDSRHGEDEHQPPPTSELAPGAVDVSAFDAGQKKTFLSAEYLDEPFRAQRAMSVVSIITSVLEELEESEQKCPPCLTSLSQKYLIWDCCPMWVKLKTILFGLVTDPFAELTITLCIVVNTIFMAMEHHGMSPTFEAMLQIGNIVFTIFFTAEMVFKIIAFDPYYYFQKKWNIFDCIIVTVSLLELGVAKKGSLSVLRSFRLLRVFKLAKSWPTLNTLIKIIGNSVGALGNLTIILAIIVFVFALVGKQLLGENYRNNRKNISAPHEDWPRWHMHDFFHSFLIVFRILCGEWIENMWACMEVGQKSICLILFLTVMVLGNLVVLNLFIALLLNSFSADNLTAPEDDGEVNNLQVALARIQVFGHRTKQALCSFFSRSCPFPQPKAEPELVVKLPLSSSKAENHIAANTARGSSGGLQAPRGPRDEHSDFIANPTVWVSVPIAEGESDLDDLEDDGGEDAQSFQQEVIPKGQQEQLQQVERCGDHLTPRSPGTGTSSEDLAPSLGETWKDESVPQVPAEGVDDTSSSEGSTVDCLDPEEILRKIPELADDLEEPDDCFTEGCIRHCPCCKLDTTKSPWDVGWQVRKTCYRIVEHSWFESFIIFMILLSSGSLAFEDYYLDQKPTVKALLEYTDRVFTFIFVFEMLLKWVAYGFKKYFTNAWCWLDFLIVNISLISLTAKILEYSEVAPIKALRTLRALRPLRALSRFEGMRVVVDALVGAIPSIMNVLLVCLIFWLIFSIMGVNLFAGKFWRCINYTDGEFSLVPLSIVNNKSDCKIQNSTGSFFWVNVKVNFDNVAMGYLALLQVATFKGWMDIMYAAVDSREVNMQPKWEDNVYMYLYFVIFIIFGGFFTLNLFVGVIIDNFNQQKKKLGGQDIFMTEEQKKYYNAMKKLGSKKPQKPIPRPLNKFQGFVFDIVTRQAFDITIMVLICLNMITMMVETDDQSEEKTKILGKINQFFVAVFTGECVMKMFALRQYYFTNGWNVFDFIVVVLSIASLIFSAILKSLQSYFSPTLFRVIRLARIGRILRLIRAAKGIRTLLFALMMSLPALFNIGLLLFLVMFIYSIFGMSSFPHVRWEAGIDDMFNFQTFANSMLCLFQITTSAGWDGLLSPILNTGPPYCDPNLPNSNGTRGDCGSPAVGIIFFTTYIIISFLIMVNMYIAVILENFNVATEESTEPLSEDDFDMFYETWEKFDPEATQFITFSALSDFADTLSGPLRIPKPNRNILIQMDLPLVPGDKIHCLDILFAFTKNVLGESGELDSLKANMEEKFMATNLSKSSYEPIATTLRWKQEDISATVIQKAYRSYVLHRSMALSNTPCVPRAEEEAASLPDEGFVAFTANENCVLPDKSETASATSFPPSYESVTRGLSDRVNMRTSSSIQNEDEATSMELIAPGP

SMILES | IC50 [1] | IC50 [2]
COc1cc(/C=N/NC(=O)c2cncc(-c3ccc(OC)cc3F)n2)cc(OC)c1 [Compound 121, (E)-N′-(3,5-dimethoxybenzylidene)-6-(2-fluoro-4-methoxyphenyl)pyrazine-2-carbohydrazide] | 117 nM | 499 nM
COc1cc(/C=N/NC(=O)c2cncc(-c3ccc(OC)cc3Cl)n2)cc(OC)c1 [Compound 122] | > 1000 nM | 5120 nM
COc1cc(/C=N/NC(=O)c2cncc(-c3ccc(OC)cc3C(F)(F)F)n2)cc(OC)c1 [Compound 123, (E)-N′-(3,5-dimethoxybenzylidene)-6-(4-methoxy-2-(trifluromethoxy)phenyl)pyrazine-2-carbohydrazide] | 803 nM | 49.2 nM
COc1cc(/C=N/NC(=O)c2cncc(-c3ccc(OC)cc3OC)n2)cc(OC)c1 [Compound 124, (E)-N′-(3,5-dimethoxybenzylidene)-6-(2,4-dimethoxyphenyl)pyrazine-2-carbohydrazide] | 73.2 nM | 181 nM
COc1cc(/C=N/NC(=O)c2cncc(N3CCOCC3)n2)cc(OC)c1 [Compound 126, (E)-N′-(3,5-dimethoxybenzylidene)-6-morpholinopyrazine-2-carbohydrazide] | > 1000 nM | > 10000 nM
COc1cc(/C=N/NC(=O)c2cncc(N3CCCCC3)n2)cc(OC)c1 [Compound 127, (E)-N′-(3,5-dimethoxybenzylidene)-6-(piperidin-1-yl)pyrazine-2-carbohydrazide] | > 1000 nM | > 10000 nM
CCc1nccnc1C(=O)N/N=C/c1cc(OC)cc(OC)c1 [Compound 132, (E)-N′-(3,5-dimethoxybenzylidene)-3-ethylpyrazine-2-carbohydrazide] | > 1000 nM | > 10000 nM
CCc1cncc(C(=O)N/N=C/c2cc(OC)cc(OC)c2)n1 [Compound 133, (E)-N′-(3,5-dimethoxybenzylidene)-6-ethylpyrazine-2-carbohydrazide] | 913 nM | > 10000 nM
COc1cc(/C=N/NC(=O)c2cncc(C(C)C)n2)cc(OC)c1 [Compound 134, (E)-N′-(3,5-dimethoxybenzylidene)-6-isopropylpyrazine-2-carbohydrazide] | > 1000 nM | > 10000 nM
COc1cc(/C=N/NC(=O)c2cnc(C(C)C)cn2)cc(OC)c1 [Compound 136, (E)-N′-(3,5-dimethoxybenzylidene)-5-isopropylpyrazine-2-carbohydrazide] | > 1000 nM | > 10000 nM
COc1cc(/C=N/NC(=O)c2cncc(C)n2)cc(OC)c1 [Compound 137, (E)-N′-(3,5-dimethoxybenzylidene)-6-methylpyrazine-2-carbohydrazide] | > 1000 nM | > 10000 nM
COc1cc(/C=N/NC(=O)c2nccnc2C)cc(OC)c1 [Compound 139, (E)-N′-(3,5-dimethoxybenzylidene)-3-methylpyrazine-2-carbohydrazide] | > 1000 nM | > 10000 nM

The remaining lines, values ahead:

IC50 [1] | IC50 [2] | SMILES
> 1000 nM | > 10000 nM | COc1cc(/C=N/NC(=O)c2cncc(-c3ccccn3)n2)cc(OC)c1 [Compound 125, (E)-N′-(3,5-dimethoxybenzylidene)-6-(pyridin-2-yl)pyrazine-2-carbohydrazide]
> 1000 nM | > 10000 nM | CCCN1CCN(c2cncc(C(=O)N/N=C/c3cc(OC)cc(OC)c3)n2)CC1 [Compound 128, (E)-N′-(3,5-dimethoxybenzylidene)-6-(4-propylpiperazin-1-yl)pyrazine-2-carbohydrazide]
> 1000 nM | > 10000 nM | COc1ccc(Oc2cnc(C(=O)N/N=C/c3cc(OC)cc(OC)c3)cn2)cc1 [Compound 130]
> 1000 nM | > 10000 nM | COc1cc(/C=N/NC(=O)c2nccnc2C(C)C)cc(OC)c1 [Compound 135, (E)-N′-(3,5-dimethoxybenzylidene)-3-isopropylpyrazine-2-carbohydrazide]
> 1000 nM | > 10000 nM | COc1cc(/C=N/NC(=O)c2cnc(C)cn2)cc(OC)c1 [Compound 138, (E)-N′-(3,5-dimethoxybenzylidene)-5-methylpyrazine-2-carbohydrazide]
